The text below walks through data of patent US8012492B2, “In vitro model of latent mycobacterial infection” (University of Central Florida Research Foundation, Inc., priority 2007, dated 2011).

One assay has as its system Mtb within TDM. In kind it is cell-based, Mycobacterium tuberculosis.
A further assay concerns WT-H37Rv. The class given is cell-based, Mycobacterium tuberculosis.

`CO[C@H]1/C=C/O[C@@]2(C)Oc3c(C)c(O)c4c(O)c(c(/C=N/N5CCN(C)CC5)c(O)c4c3C2=O)NC(=O)/C(C)=C\C=C\[C@H](C)[C@H](O)[C@@H](C)[C@@H](O)[C@@H](C)[C@H](OC(C)=O)[C@@H]1C` [Rif, Rifampicin]: in the assay on Mtb within TDM, the “Development of Rif resistance, share of the Mtb population” value was “about 25%”. Also, in the assay on WT-H37Rv, the Rif resistant cells entry is on record as “about 10%”, the Rif-resistance entry is listed as “up to 25%” and the Rif-resistant cells entry was “about 0.03%”.

For the compound `NNC(=O)c1ccncc1` [INH], the “Resistance of Mtb recovered from TDM to antibiotics” value with Mtb within TDM is reported as “showed resistance to both antibiotics”.
